Measured values taken from patent US10500166B2, “Methods for the treatment of erectile dysfunction using fispemifene” (QUATRX PHARMACEUTICALS, priority 2007, dated 2019).

Experiments:
testosterone/E2 ratio = assay: Example 3 study in hypogonadal men: testosterone/E2 ratio (ITT); type: in vivo, human; conditions: 300 mg
Protocol: (§1) A randomized, double-blind, placebo controlled, parallel-group study of once-daily doses of fispemifene (100, 200, and 300 mg/day) given for 4 weeks was conducted in a population of hypogonadal men. Subjects were required to meet all of the following inclusion criteria at screening and prior to randomization to be eligible for the study:
(§2) There were 77 subjects total. The number of subjects randomized to the 100 mg fispemifene, 200 mg fispemifene, 300 mg fispemifene, and placebo arms were 21, 21, 19, and 16, respectively.
(§3) Subjects were randomly assigned to one of four treatment groups in a 1:1:1:1 ratio: • Treatment A (100 mg): fispemifene 100 mg+placebo+placebo; • Treatment B (200 mg): fispemifene 100 mg+fispemifene 100 mg+placebo; • Treatment C (300 mg): fispemifene 100 mg+fispemifene 100 mg+fispemifene 100 mg; and • Treatment D (Placebo): placebo+placebo+placebo.
(§4) Subjects took one dose (three capsules) of study medication once a day at home for 4 weeks. Capsules were to be taken in the morning immediately after breakfast, with the exception of the morning of the Week 4 visit. Capsules were not to be taken on the morning of the Week 4 visit because trough plasma levels of fispemifene were determined by a blood sample taken at this visit. Each subject was randomly assigned to treatment with one of the 3 different dose regimens of fispemifene or placebo vehicle. Each subject received a 4 week supply of study drug.
(§5) Blood samples were taken from the subjects within 1 week prior to dosing with study drug to establish baseline values; after 2 and 4 weeks of randomization; and 2 weeks after the last dose of study drug. Serum was prepared from those samples and used to determine the mean % change from baseline in total testosterone, free testosterone, SHBG (sex hormone-binding globulin), DHT (dihydrotestosterone), E2 (estradiol), LH (luteinizing hormone), FSH (follicle stimulating hormone), and inhibin B.
(§6) 3. Percent change from baseline in SHBG, DHT, E2, LH, FSH, inhibin B, and testosterone/E2 ratio at Weeks 2, 4, and 6.

inhibin B = assay: Example 3 study in hypogonadal men: serum inhibin B (ITT); type: in vivo, human; conditions: for Inhibin B % Change from Baseline to Week 2, Max / Inhibin B % Change from Baseline to Week 2, Mean ± SD / Inhibin B % Change from Baseline to Week 2, Median / Inhibin B % Change from Baseline to Week 2, Min: Week 2, (Week minus Baseline) divided by Baseline; for Inhibin B % Change from Baseline to Week 2, Max / Inhibin B % Change from Baseline to Week 2, Mean ± SD / Inhibin B % Change from Baseline to Week 2, Median / Inhibin B % Change from Baseline to Week 2, Min / Inhibin B % Change from Baseline to Week 4, Max / Inhibin B % Change from Baseline to Week 4, Mean ± SD / Inhibin B % Change from Baseline to Week 4, Median / Inhibin B % Change from Baseline to Week 4, Min / Inhibin B % Change from Baseline to Week 6, Max / Inhibin B % Change from Baseline to Week 6, Mean ± SD / Inhibin B % Change from Baseline to Week 6, Median / Inhibin B % Change from Baseline to Week 6, Min: LOCF; for Inhibin B % Change from Baseline to Week 4, Max / Inhibin B % Change from Baseline to Week 4, Mean ± SD / Inhibin B % Change from Baseline to Week 4, Median / Inhibin B % Change from Baseline to Week 4, Min: Week 4, (Week minus Baseline) divided by Baseline; for Inhibin B % Change from Baseline to Week 6, Max / Inhibin B % Change from Baseline to Week 6, Mean ± SD / Inhibin B % Change from Baseline to Week 6, Median / Inhibin B % Change from Baseline to Week 6, Min: Week 6, (Week minus Baseline) divided by Baseline
Protocol: as §1, §2, §3, §4, §5, §6

[1] = Week 2, (Week minus Baseline) divided by Baseline, LOCF
[2] = Week 4, (Week minus Baseline) divided by Baseline, LOCF
[3] = Week 6, (Week minus Baseline) divided by Baseline, LOCF

OCCOCCOc1ccc(/C(=C(/CCCl)c2ccccc2)c2ccccc2)cc1 [Fispemifene, (Z)-2-{2-[4-(4-Chloro-1,2-diphenylbut-1-enyl)phenoxy]ethoxy}ethanol]
Testosterone/E2 Ratio % Change from Baseline to Week 2, Max (testosterone/E2 ratio; [1]): 1.43 | Testosterone/E2 Ratio % Change from Baseline to Week 2, Mean ± SD (testosterone/E2 ratio; [1]): 0.21 ± 0.372 | Testosterone/E2 Ratio % Change from Baseline to Week 2, Median (testosterone/E2 ratio; [1]): 0.15 | Testosterone/E2 Ratio % Change from Baseline to Week 2, Min (testosterone/E2 ratio; [1]): −0.24 | Testosterone/E2 Ratio % Change from Baseline to Week 4, Max (testosterone/E2 ratio; [2]): 1.12 | Testosterone/E2 Ratio % Change from Baseline to Week 4, Mean ± SD (testosterone/E2 ratio; [2]): 0.33 ± 0.428 | Testosterone/E2 Ratio % Change from Baseline to Week 4, Median (testosterone/E2 ratio; [2]): 0.36 | Testosterone/E2 Ratio % Change from Baseline to Week 4, Min (testosterone/E2 ratio; [2]): −0.53 | Testosterone/E2 Ratio % Change from Baseline to Week 6, Max (testosterone/E2 ratio; [3]): 0.65 | Testosterone/E2 Ratio % Change from Baseline to Week 6, Mean ± SD (testosterone/E2 ratio; [3]): 0.12 ± 0.250 | Testosterone/E2 Ratio % Change from Baseline to Week 6, Median (testosterone/E2 ratio; [3]): 0.11 | Testosterone/E2 Ratio % Change from Baseline to Week 6, Min (testosterone/E2 ratio; [3]): −0.29 | Testosterone/E2 Ratio Actual Value at Baseline (Visit 2), Max (testosterone/E2 ratio; baseline): 23.1 | Testosterone/E2 Ratio Actual Value at Baseline (Visit 2), Mean ± SD (testosterone/E2 ratio; baseline): 11.5 ± 4.87 | Testosterone/E2 Ratio Actual Value at Baseline (Visit 2), Median (testosterone/E2 ratio; baseline): 10.6 | Testosterone/E2 Ratio Actual Value at Baseline (Visit 2), Min (testosterone/E2 ratio; baseline): 1.7 | Inhibin B % Change from Baseline to Week 2, Max (inhibin B; 100 mg): 1.64 | Inhibin B % Change from Baseline to Week 2, Mean ± SD (inhibin B; 100 mg): 0.24 ± 0.493 | Inhibin B % Change from Baseline to Week 2, Median (inhibin B; 100 mg): 0.17 | Inhibin B % Change from Baseline to Week 2, Min (inhibin B; 100 mg): −0.44 | Inhibin B % Change from Baseline to Week 4, Max (inhibin B; 100 mg): 1.86 | Inhibin B % Change from Baseline to Week 4, Mean ± SD (inhibin B; 100 mg): 0.30 ± 0.631 | Inhibin B % Change from Baseline to Week 4, Median (inhibin B; 100 mg): 0.09 | Inhibin B % Change from Baseline to Week 4, Min (inhibin B; 100 mg): −0.61 | Inhibin B % Change from Baseline to Week 6, Max (inhibin B; 100 mg): 1.40 | Inhibin B % Change from Baseline to Week 6, Mean ± SD (inhibin B; 100 mg): 0.41 ± 0.572 | Inhibin B % Change from Baseline to Week 6, Median (inhibin B; 100 mg): 0.29 | Inhibin B % Change from Baseline to Week 6, Min (inhibin B; 100 mg): −0.41 | Inhibin B Actual Value at Baseline (Visit 2), Max (inhibin B; 100 mg): 191.0 pg/mL | Inhibin B Actual Value at Baseline (Visit 2), Mean ± SD (inhibin B; 100 mg): 95.1 ± 46.32 pg/mL | Inhibin B Actual Value at Baseline (Visit 2), Median (inhibin B; 100 mg): 89.0 pg/mL | Inhibin B Actual Value at Baseline (Visit 2), Min (inhibin B; 100 mg): 22.0 pg/mL | Inhibin B % Change from Baseline to Week 2, Max (inhibin B; 200 mg): 1.48 | Inhibin B % Change from Baseline to Week 2, Mean ± SD (inhibin B; 200 mg): 039 ± 0.534 | Inhibin B % Change from Baseline to Week 2, Median (inhibin B; 200 mg): 0.21 | Inhibin B % Change from Baseline to Week 2, Min (inhibin B; 200 mg): −0.22 | Inhibin B % Change from Baseline to Week 4, Max (inhibin B; 200 mg): 3.40 | Inhibin B % Change from Baseline to Week 4, Mean ± SD (inhibin B; 200 mg): 0.42 ± 0.862 | Inhibin B % Change from Baseline to Week 4, Median (inhibin B; 200 mg): 0.12 | Inhibin B % Change from Baseline to Week 4, Min (inhibin B; 200 mg): −0.44 | Inhibin B % Change from Baseline to Week 6, Max (inhibin B; 200 mg): 2.00 | Inhibin B % Change from Baseline to Week 6, Mean ± SD (inhibin B; 200 mg): 0.40 ± 0.628 | Inhibin B % Change from Baseline to Week 6, Median (inhibin B; 200 mg): 0.22 | Inhibin B % Change from Baseline to Week 6, Min (inhibin B; 200 mg): −0.34 | Inhibin B Actual Value at Baseline (Visit 2), Max (inhibin B; 200 mg): 220.0 pg/mL | Inhibin B Actual Value at Baseline (Visit 2), Mean ± SD (inhibin B; 200 mg): 105.6 ± 59.43 pg/mL | Inhibin B Actual Value at Baseline (Visit 2), Median (inhibin B; 200 mg): 95.0 pg/mL | Inhibin B Actual Value at Baseline (Visit 2), Min (inhibin B; 200 mg): 16.0 pg/mL | Inhibin B % Change from Baseline to Week 2, Max (inhibin B; 300 mg): 0.97 | Inhibin B % Change from Baseline to Week 2, Mean ± SD (inhibin B; 300 mg): 0.12 ± 0.400 | Inhibin B % Change from Baseline to Week 2, Median (inhibin B; 300 mg): 0.05 | Inhibin B % Change from Baseline to Week 2, Min (inhibin B; 300 mg): −0.42 | Inhibin B % Change from Baseline to Week 4, Max (inhibin B; 300 mg): 0.878 | Inhibin B % Change from Baseline to Week 4, Mean ± SD (inhibin B; 300 mg): 0.016 ± 0.2904 | Inhibin B % Change from Baseline to Week 4, Median (inhibin B; 300 mg): −0.012 | Inhibin B % Change from Baseline to Week 4, Min (inhibin B; 300 mg): −0.459 | Inhibin B % Change from Baseline to Week 6, Max (inhibin B; 300 mg): 0.645 | Inhibin B % Change from Baseline to Week 6, Mean ± SD (inhibin B; 300 mg): 0.004 ± 0.3349 | Inhibin B % Change from Baseline to Week 6, Median (inhibin B; 300 mg): −0.057 | Inhibin B % Change from Baseline to Week 6, Min (inhibin B; 300 mg): −0.493 | Inhibin B Actual Value at Baseline (Visit 2), Max (inhibin B; 300 mg): 334.0 pg/mL | Inhibin B Actual Value at Baseline (Visit 2), Mean ± SD (inhibin B; 300 mg): 127.3 ± 75.76 pg/mL | Inhibin B Actual Value at Baseline (Visit 2), Median (inhibin B; 300 mg): 128.0 pg/mL | Inhibin B Actual Value at Baseline (Visit 2), Min (inhibin B; 300 mg): 16.0 pg/mL
